Experimental data taken from paper PMC4867239 (Journal of biotechnology, 2016).
Ends that are not written are not given here.

Experiments:
S. aureus = assay: microbe, parasite or virus in culture; settings: Staphylococcus aureus, read-out: active at (MIC assay)
[1] = Phase 1 SAD/MAD plasma PK in healthy volunteers; format: in vivo, Human; settings: humans
[2] = Quantitative whole body autoradiography with [14C]SGX94; format: in vivo, male CD-1 mice
[3] = Plasma PK in mice, 14 days of daily IV dosing; format: in vivo, Mouse (CD-1); settings: for AUC(0-t) / Cmax / MRT / Tmax: CD-1, mouse, plasma, iv
[4] = Plasma PK in cynomolgus monkeys, 14 days of daily IV dosing; format: in vivo, Cynomolgus macaques; settings: for AUC(0-t) / Cmax / MRT: cynomolgus monkey, plasma, iv

CC[C@H]1OC(=O)[C@H](C)[C@@H](O[C@H]2C[C@@](C)(OC)[C@@H](O)[C@H](C)O2)[C@H](C)[C@@H](O[C@@H]2O[C@H](C)C[C@H](N(C)C)[C@H]2O)[C@](C)(O)C[C@@H](C)C(=O)[C@H](C)[C@@H](O)[C@]1(C)O [erythromycin]
MIC (S. aureus): < 3.12 µg/mL

RIVPA-NH2 [SGX94, dusquetide]
PK half-life [1]: very short (minutes)
major analyte in blood ([2]; 20 mg/kg [14C]SGX94 IV, by 5 min post-dose): a metabolite of SGX94
penetration into CNS, bone, white adipose and eye lens ([2]; QWBA, 20 mg/kg [14C]SGX94 IV bolus, male CD-1 mice): low penetration
AUC(0-t) ([3]; female, 20 mg/kg): 1700 ng·h/mL
Cmax ([3]; female, 20 mg/kg): 8080 ng/mL
MRT ([3]; female, 20 mg/kg): 2 min
AUC(0-t) ([3]; female, 60 mg/kg): 6520 ng·h/mL
Cmax ([3]; female, 60 mg/kg): 27100 ng/mL
MRT ([3]; female, 60 mg/kg): 6.5 min
AUC(0-t) ([3]; female, 90 mg/kg): 10400 ng·h/mL
Cmax ([3]; female, 90 mg/kg): 45800 ng/mL
MRT ([3]; female, 90 mg/kg): 1.8 min
AUC(0-t) ([3]; male, 20 mg/kg): 4500 ng·h/mL
Cmax ([3]; male, 20 mg/kg): 23000 ng/mL
MRT ([3]; male, 20 mg/kg): 2.3 min
Tmax ([3]; male, 20 mg/kg): 3 min
AUC(0-t) ([3]; male, 60 mg/kg): 9290 ng·h/mL
Cmax ([3]; male, 60 mg/kg): 41200 ng/mL
MRT ([3]; male, 60 mg/kg): 1.8 min
Tmax ([3]; male, 60 mg/kg): 3 min
AUC(0-t) ([3]; male, 90 mg/kg): 17400 ng·h/mL
Cmax ([3]; male, 90 mg/kg): 72200 ng/mL
MRT ([3]; male, 90 mg/kg): 1.6 min
Tmax ([3]; male, 90 mg/kg): 3 min
PK half-life ([3]; mouse): very short (minutes)
AUC(0-t) ([4]; female, 20 mg/kg): 2410 ± 1230 ng·h/mL
Cmax ([4]; female, 20 mg/kg): 12400 ± 6410 ng/mL
MRT ([4]; female, 20 mg/kg): 6.6 min
AUC(0-t) ([4]; female, 80 mg/kg): 3360 ± 4710 ng·h/mL
Cmax ([4]; female, 80 mg/kg): 16900 ± 24800 ng/mL
MRT ([4]; female, 80 mg/kg): 55 min
AUC(0-t) ([4]; female, 160 mg/kg): 36300 ± 26400 ng·h/mL
Cmax ([4]; female, 160 mg/kg): 179000 ± 132000 ng/mL
MRT ([4]; female, 160 mg/kg): 6.6 min
AUC(0-t) ([4]; male, 20 mg/kg): 1330 ± 438 ng·h/mL
Cmax ([4]; male, 20 mg/kg): 6650 ± 2520 ng/mL
MRT ([4]; male, 20 mg/kg): 7.8 min
AUC(0-t) ([4]; male, 80 mg/kg): 19400 ± 6910 ng·h/mL
Cmax ([4]; male, 80 mg/kg): 85900 ± 25800 ng/mL
MRT ([4]; male, 80 mg/kg): 7.8 min
AUC(0-t) ([4]; male, 160 mg/kg): 46000 ± 9570 ng·h/mL
Cmax ([4]; male, 160 mg/kg): 206000 ± 33400 ng/mL
MRT ([4]; male, 160 mg/kg): 7.2 min
PK half-life ([4]; non-human primate): very short (minutes)
